The values below come from patent US20250110130A1, “EX VIVO PROTEASE ACTIVATION AND DETECTION” (SunBird Bio, Inc., priority 2021, published 2025).

Non-standard residues stand in square brackets, D forms with d. Primed or numbered codes have the meaning given here. No end group written: not given here. *: point of attachment. CPQ2 = fluorescent quencher, paired with 5-carboxyfluorescein; 5FAM = O=C1OC2(c3ccc(O)cc3Oc3cc(O)ccc32)c2ccc(C(=O)*)cc21; FAM = 5-carboxyfluorescein (fluorescent label); PEG2′ = PEG spacer

Assay [1] has as its system protease (caspase) activity in mouse plasma. Nature of the assay: Ex vivo probe assay in plasma of the Jo2 mouse model of fulminant hepatitis. The following applies: mouse plasma 3 hours after Jo2 injection. Format: biochemical. The procedure: Fulminant hepatitis is induced after injection intraperitoneal of monoclonal antibody anti-CD95 (Jo2, BD biosciences, 4 ug/animal), and mouse plasma samples were collected 3 hours after Jo2 injection.
The comparison with mass spectrometry data also aligns and confirms high concordance with the ex vivo approach, which is reassuring to confirm the existence of a biologically relevant signal.

In assay [2] the target is T1, MMP2 (Homo sapiens, UniProt P08253).
T1 sequence (P08253 110-660): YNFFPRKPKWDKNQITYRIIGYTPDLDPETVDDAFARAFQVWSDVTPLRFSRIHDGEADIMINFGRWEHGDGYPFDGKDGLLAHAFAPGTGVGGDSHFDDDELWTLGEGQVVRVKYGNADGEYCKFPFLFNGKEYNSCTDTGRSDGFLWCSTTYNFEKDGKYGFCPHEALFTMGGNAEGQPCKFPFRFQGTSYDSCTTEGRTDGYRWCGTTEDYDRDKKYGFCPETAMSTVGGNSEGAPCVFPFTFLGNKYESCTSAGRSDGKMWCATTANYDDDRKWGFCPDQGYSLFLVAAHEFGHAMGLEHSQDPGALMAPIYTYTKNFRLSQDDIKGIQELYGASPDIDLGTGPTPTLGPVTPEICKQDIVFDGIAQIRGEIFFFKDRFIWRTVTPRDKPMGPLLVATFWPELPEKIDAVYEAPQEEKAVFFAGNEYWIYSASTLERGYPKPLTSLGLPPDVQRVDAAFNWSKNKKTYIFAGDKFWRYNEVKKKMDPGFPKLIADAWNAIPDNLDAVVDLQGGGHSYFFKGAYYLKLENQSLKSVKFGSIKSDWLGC
Nature of the assay: Recombinant MMP2 spike-in to human K2 EDTA plasma with Zinc titration. The class given is biochemical. Also noted: host or cells: spiked into human K2 EDTA plasma.

For another assay, the system named is MMPs in K2 EDTA plasma. Nature of the assay: Zinc reactivation of MMPs in human K2 EDTA plasma. The note with it: for protease activity recovered by Calcium compared to Zinc: Calcium up to 6 mM vs 1 mM Zinc, plasma. The class given is biochemical. The text has this: In this experiment, MMPs are reactivated in K2 EDTA plasma that has been collected with EDTA. EDTA causes chelation of the […] ion and interferes with the stability of the MMPs and has high MMP inhibition activity in vitro. The goal of zinc addition was to reactivate potential MMPs in solution that have been inhibited due to the addition of K2 EDTA.
To reactivate the MMPs in plasma, the EDTA was completely titrated and bound to the Zinc while the excess zinc in the solution was also used as an activating agent for the MMPs. Zinc chloride (Alfa Aesar) was prepared in ddH2O and fully dissolved. The zinc chloride ([…]) solution was then diluted in an assay buffer designed for MMPs. The plasma samples were prepared in the MMP buffer and the plasma samples were combined with the ZnCl solution in a 3:1 ratio. The mixture was incubated on ice after being combined. While the samples were incubating, the related substrates were prepared for analysis. Substrates used in this experiment were Probes #117, 263, 349, and 417. Samples were added to a substrate of interest once the sample incubation was complete. The mixture was spun, and results were read on a Biotek Synergy H1 at Ex/Em=485/535 using extended dynamic range.

In assay [3] the test system is protease activity sensed by Probe #102 (cathepsin L, CTSL) in K2 EDTA plasma. As to the kind of experiment: Protease inhibitor profiling of Probe #102 cleavage in NASH and healthy plasma. The following applies: for effect of inhibitor on signal, in words: Probe #102, NASH and healthy plasma.
Description: For this experiment, all plasma samples were prepared individually and diluted 1/10e in PBS with inhibitor added directly to the samples. Inhibitor was prepared at 15× concentration to final. Substrates were diluted in DI water at 18 uM, such that the final concentration on the plate would be 6 uM. All samples were prepared such that their last dilution on the plate would not affect the desired final concentration. 10 ul of each individual sample was pipetted into their corresponding wells, and the plate was then spun down in the centrifuge at 1500 RPM for 30 seconds to coat the bottom of each well with the sample. 5 ul of the 18 uM substrate solution was pipetted into each well being used on a 384 well plate, and then the plate was spun down in the centrifuge at 1500 rpm for 30 seconds. The plate was placed immediately in the plate reader at 37° C. for a 30-minute-long fluorescence kinetic read at 485/535 extended gain.
To assess the proteolytic cleavage pattern of Probe #102, samples were tested using a pool of broad inhibitors for serine, cysteine, threonine, MMP and aspartic protease family members (broad inhibitor) to assess general protease activity, AEBSF for serine proteases, E64 for cysteine proteases, CTSi for broad cathepsin inhibition of cathepsins L, S, K and B, or specific inhibitors for cathepsin K (L00625), for cathepsin L (SID) or cathepsin B (CA074).
Assay [4] has as its system carboxylesterase 1, phospholipase A2 and lipoprotein lipase. As to the kind of experiment: Spiked recombinant enzymes in human plasma with resorufin oleate as substrate. Format: biochemical.
In assay [5] the test system is MMP protease signal in mouse plasma. Nature of the assay: Zinc reactivation of MMPs in mouse plasma, healthy vs NASH. Format: biochemical. The note with it: for Fold change ratio, Zinc Buffer: Zinc MMP buffer. The source says: To perform this experiment, samples were pipetted into each well of a 384 well plate. […] The plate was kept on ice throughout procedure. […] Then, the place was centrifuged again.
A summary table of the results can be found in Table 4.

A further assay concerns the target T2, MMP20 (Homo sapiens, UniProt O60882).
T2 sequence (O60882 108-483): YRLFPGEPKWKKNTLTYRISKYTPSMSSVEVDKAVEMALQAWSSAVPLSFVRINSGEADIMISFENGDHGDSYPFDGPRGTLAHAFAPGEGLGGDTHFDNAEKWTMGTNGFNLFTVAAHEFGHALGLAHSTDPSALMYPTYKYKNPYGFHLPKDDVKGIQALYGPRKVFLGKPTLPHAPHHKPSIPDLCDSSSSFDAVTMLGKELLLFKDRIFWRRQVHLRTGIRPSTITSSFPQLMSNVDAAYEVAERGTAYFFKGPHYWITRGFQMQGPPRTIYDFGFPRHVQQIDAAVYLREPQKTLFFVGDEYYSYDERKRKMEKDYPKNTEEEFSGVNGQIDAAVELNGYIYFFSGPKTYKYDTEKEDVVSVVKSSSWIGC
Nature of the assay: Recombinant protease screen of probes. Format: biochemical. The following applies: recombinant MMP20, 1 h fluorescence read. The procedure: (§1) To determine different probes' ability to cleave MMPs and/or DPP4, samples were pipetted into each well in a 384 well plate. […] The plate was centrifuged again, and the plate was then placed into the plate reader for a 1 h fluorescence read.

The target of assay [6] is T1, MMP2. As to the kind of experiment: Recombinant protease screen of probes. The class given is biochemical. The note with it: recombinant MMP2, 1 h fluorescence read. On the procedure: as §1
In assay [7] the test system is protease activity in COVID and healthy plasma. As to the kind of experiment: Ex vivo probe assay in COVID and healthy plasma (K2 EDTA and Lithium Heparin). The class given is biochemical. The note with it: K2 EDTA samples.
For another assay, the target named is MMP13 (Homo sapiens, UniProt P45452). As to the kind of experiment: Recombinant protease screen of probes. The class given is biochemical. The note with it: recombinant MMP13, 1 h fluorescence read. The procedure: as §1
In another assay the target is DPP4 (Homo sapiens, UniProt P27487). Nature of the assay: Recombinant protease screen of probes. The class given is biochemical. The following applies: recombinant DPP4, 1 h fluorescence read. The procedure: as §1
Chain of DPP4 (P27487 whole entry, species assumed): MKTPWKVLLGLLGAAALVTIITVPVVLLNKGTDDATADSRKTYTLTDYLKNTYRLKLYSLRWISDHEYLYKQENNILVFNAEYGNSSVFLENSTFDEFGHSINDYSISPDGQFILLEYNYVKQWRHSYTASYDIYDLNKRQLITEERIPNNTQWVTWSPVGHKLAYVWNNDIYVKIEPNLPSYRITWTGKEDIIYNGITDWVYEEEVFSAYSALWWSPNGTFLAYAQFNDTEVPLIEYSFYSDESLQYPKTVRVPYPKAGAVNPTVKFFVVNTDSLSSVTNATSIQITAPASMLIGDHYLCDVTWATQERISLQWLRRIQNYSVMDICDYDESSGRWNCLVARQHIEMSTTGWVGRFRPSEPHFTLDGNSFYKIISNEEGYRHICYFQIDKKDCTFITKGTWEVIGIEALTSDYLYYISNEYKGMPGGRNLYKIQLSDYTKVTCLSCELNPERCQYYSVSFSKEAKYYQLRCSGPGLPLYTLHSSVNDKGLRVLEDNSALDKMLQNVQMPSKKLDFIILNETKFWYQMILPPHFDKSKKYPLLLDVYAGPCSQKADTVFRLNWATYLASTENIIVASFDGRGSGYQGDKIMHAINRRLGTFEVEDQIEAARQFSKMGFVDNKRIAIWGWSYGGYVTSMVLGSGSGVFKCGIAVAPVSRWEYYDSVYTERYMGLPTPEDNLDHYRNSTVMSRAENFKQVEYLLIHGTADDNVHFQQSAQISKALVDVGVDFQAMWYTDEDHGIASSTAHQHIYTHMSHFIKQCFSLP

Turning to “Probe #12: Caspase centric probe (5FAM-GDEVDGK(CPQ2)[PEG2′][dK][dK]GC; also: 5-FAM, CPQ2 quencher, PEG2, D-Lys-D-Lys-GC)”, the “contrast between healthy and Jo2 samples” value in assay [1] was “show contrast that is specific and sensitive to the Jo2 model”.

`[Cl-].[Cl-].[Zn+2]` [Zinc, Zinc chloride]: on MMP2 [2], the “activity of recombinant MMP2 spiked into human K2 EDTA plasma” value is “capable of reviving the MMP2 activity in plasma”. In addition, in the assay with MMPs in K2 EDTA plasma (across all vendors tested, Probe #349), the “optimal Zinc concentration” value came to 1 mM.

Regarding `CC(C)C[C@H](NC(=O)[C@H]1O[C@@H]1C(=O)O)C(=O)NCCCCN=C(N)N` [Probe E64, E64], the “effect of inhibitor on signal, in words” value in [3] is reported as “decreased NASH signal significantly”.

On to `CCCC(=O)O` [butyrate], for which the “suitability as substrate for detection of enzymes” value in assay [4] is “promising for detection of broad range of enzymes”.

With “Probe #117: probe whose peptide linker is SEQ ID No 117 ({FAM}-GAALHNDGK(CPQ2)[PEG2′][dK][dK]-NH2; also: FAM, CPQ2 quencher, PEG2, D-Lys-D-Lys, amide)”, in assay [5], the “Fold change ratio, Zinc Buffer” value was determined as 2.11 and the “Fold change ratio, Normal Buffer” value is listed as 1.47. In addition, the “protease sensed by probe” value in the assay with MMP20 is listed as “sensed”. In the assay with MMP2 [6], the “protease sensed by probe” value is reported as “sensed”.

On to `CN1CCN(c2nc(-c3ccc(C(=O)NC4(C(=O)NCC#N)CCCCC4)cc3)cs2)CC1` [Probe L006235], for which the “effect of inhibitor on signal, in words” value in assay [3] is reported as “did not significantly decrease signal”.

For `[Ca]` [Calcium], the “protease activity recovered by Calcium compared to Zinc” value is reported as “minimal protease activity is recovered” in the assay on MMPs in K2 EDTA plasma and “does not show similar activation effects” with MMPs in K2 EDTA plasma (listed as calcium).

On to `CCCNC(=O)[C@H]1O[C@@H]1C(=O)N[C@H](C(=O)N1CCC[C@H]1C(=O)O)[C@@H](C)CC` [CA074], for which, in assay [3], the “effect of inhibitor on signal, in words” value is given as “did not significantly decrease signal”.

As to “Probe #409: the SARS CoV2 coronavirus substrate (SARS-COV2 3C protease) (GTSAVLQSGFRKGK; also: 5-FAM, CPQ2 quencher, PEG2-kk-GC)”, the “contrast between COVID and healthy samples” value in assay [7] is reported as “modest contrast”.

For the compound “Probe #8: Caspase centric probe (5FAM-GVDVADGK(CPQ2)[PEG2′][dK][dK]GC; also: 5-FAM, CPQ2 quencher, PEG2, D-Lys-D-Lys-GC)”, in [1], the “contrast between healthy and Jo2 samples” value is “show contrast that is specific and sensitive to the Jo2 model”.

In the case of `NCCc1ccc(S(=O)(=O)F)cc1` [AEBSF], the “decrease of signal in NASH samples by inhibitor” value in assay [3] (Probe #102, NASH plasma) is 65%. Moreover, the “decrease of signal in healthy samples by inhibitor” value in assay [3] (Probe #102, healthy plasma) stood at 60%.

Consider Resorufin oleate, for which, in assay [4], the “suitability as substrate for detection of enzymes” value is recorded as “promising for detection of broad range of enzymes”.

For “Probe #263: probe whose peptide linker is SEQ ID No 263 ({FAM}-GQKAAWDGK(CPQ2)-NH2; also: FAM, CPQ2 quencher)”, in assay [5], the “Fold change ratio, Zinc Buffer” value is listed as 2.09 and the “Fold change ratio, Normal Buffer” value was found to be 1.7. In the assay with MMP13, the “protease sensed by probe” value is recorded as “sensed”.

Regarding `O=C([O-])CN(CCN(CC(=O)O)CC(=O)O)CC(=O)[O-].[K+].[K+]` [K2 EDTA], the “activity of recombinant MMP2 spiked into human K2 EDTA plasma” value at MMP2 [2] is recorded as “completely deactivated”.

Turning to “Probe #411: probe of Table 1; sensed DPP4 (5FAM-GAAFAGK(CPQ2)[PEG2′][dK][dK]GC; also: 5-FAM, CPQ2 quencher, PEG2, D-Lys-D-Lys-GC)”, in assay [5], the “Fold change ratio, Zinc Buffer” value stood at 2.52 and the “Fold change ratio, Normal Buffer” value was found to be 1.88. Further, the “protease sensed by probe” value with DPP4 is given as “sensed”.
